This is an account of results in patent US10766893B2 (priority 2017, dated 2020).

Common to all, as to test: biochemical
Holding throughout (assay type): biochemical
Common to all, as to details: 15 nM tritium labelled cAMP, 1 hr at room temperature

The target in one assay is PDE1C (Homo sapiens (Human), UniProt Q14123). An excerpt:
(§1) Table 1 lists the IC50 value for inhibition of PDE1 by the compounds of the invention. […] PDE1 assays are described in the Experimental Section.

A further assay deals with PDE1B (Homo sapiens (Human), UniProt Q01064).
Text: as §1

Another assay concerns the target PDE1A (Homo sapiens (Human), UniProt P54750).
Text: as §1

Chain of PDE1A (P54750 whole entry): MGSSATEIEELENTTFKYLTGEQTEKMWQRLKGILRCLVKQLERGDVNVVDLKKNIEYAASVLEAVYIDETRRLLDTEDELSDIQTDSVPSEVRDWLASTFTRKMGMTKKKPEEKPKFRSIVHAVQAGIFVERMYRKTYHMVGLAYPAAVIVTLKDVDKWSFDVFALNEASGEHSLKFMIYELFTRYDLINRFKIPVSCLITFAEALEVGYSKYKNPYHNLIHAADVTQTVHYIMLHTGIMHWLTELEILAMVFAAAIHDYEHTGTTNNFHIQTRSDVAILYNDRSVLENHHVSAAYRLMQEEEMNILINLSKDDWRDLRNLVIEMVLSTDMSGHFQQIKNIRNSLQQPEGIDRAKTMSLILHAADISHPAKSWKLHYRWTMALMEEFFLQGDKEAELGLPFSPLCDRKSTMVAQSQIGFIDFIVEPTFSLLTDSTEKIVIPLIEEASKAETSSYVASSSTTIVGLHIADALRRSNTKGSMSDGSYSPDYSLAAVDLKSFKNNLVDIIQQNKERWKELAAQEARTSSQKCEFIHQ
Chain of PDE1B (Q01064 whole entry): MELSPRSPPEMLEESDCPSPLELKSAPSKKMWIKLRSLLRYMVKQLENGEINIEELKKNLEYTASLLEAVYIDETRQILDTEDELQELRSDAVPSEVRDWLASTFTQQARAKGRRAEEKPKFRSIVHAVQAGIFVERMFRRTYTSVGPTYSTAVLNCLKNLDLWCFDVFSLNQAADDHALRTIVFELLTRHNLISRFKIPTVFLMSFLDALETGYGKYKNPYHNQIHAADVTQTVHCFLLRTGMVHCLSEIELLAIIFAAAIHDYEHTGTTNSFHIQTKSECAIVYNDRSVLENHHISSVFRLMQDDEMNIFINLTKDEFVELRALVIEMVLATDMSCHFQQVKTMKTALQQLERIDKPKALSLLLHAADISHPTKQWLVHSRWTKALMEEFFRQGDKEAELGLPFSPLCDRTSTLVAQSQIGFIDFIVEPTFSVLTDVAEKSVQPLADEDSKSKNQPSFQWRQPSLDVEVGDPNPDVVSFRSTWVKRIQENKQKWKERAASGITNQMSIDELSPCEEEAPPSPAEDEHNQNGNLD
Chain of PDE1C (Q14123 whole entry): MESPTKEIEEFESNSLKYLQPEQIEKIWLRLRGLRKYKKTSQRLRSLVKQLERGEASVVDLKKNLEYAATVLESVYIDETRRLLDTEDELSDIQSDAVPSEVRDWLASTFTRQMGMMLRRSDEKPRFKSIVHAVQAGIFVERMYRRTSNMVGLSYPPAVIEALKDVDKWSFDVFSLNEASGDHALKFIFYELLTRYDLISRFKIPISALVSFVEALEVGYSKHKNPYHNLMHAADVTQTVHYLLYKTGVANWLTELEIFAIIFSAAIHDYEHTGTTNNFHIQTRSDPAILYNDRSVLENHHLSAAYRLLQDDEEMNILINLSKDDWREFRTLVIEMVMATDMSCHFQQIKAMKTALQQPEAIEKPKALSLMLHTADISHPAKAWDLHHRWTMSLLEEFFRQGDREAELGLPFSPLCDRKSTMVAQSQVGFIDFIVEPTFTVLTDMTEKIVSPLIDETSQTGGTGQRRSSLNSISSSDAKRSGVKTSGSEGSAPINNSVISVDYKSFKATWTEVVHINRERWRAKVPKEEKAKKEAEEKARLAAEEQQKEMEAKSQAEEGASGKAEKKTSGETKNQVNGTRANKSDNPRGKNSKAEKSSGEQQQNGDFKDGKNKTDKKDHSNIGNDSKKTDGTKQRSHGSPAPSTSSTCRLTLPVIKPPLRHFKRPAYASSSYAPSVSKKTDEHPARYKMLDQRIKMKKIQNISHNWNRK

What is called IC50 is the concentration that inhibits the measured activity by half. Low values mean greater potency in that assay, high ones weaker potency in that assay. On to `CCOc1nnccc1-c1cc(NCc2cnn(C)c2)c2c(n1)c(C)nn2C(C)CC` (single isomer, unassigned) [Example 5b, 5-(3-ethoxypyridazin-4-yl)-3-methyl-N-[(1-methylpyrazol-4-yl)methyl]-1-[1-methylpropyl]pyrazolo[4,3-b]pyridin-7-amine], for which the results for the IC50 against PDE1C, on PDE1B and against PDE1A were 102 nM, 6.1 nM and 25 nM, respectively.
With `CCOc1nnccc1-c1cc(NCc2cnn(C)c2)c2c(n1)c(C)nn2C(C)CC` (single isomer, unassigned) [Example 6b, 5-(3-ethoxypyridazin-4-yl)-3-methyl-N-[(1-methylpyrazol-4-yl)methyl]-1-[1-methylpropyl]pyrazolo[4,3-b]pyridin-7-amine], the results for the IC50 against PDE1C, against PDE1B and on PDE1A were 11 nM, 0.36 nM and 1.9 nM, respectively.
Taken in the same sequence, the figures for `CCOc1cnccc1-c1cc(NCc2cnn(C)c2)c2c(n1)c(C)nn2C(C)CC` (single isomer, unassigned) [Example 32b, 5-(3-ethoxy-4-pyridyl)-3-methyl-N-[(1-methylpyrazol-4-yl)methyl]-1-[1-methylpropyl]pyrazolo[4,3-b]pyridin-7-amine] were 180 nM, 7.8 nM and 57 nM.
For `CCOc1nnccc1-c1cc(NCc2ncccn2)c2c(n1)c(C)nn2C(C)C` [Example 1b, 5-(3-ethoxypyridazin-4-yl)-1-isopropyl-3-methyl-N-(pyrimidin-2-ylmethyl)pyrazolo[4,3-b]pyridin-7-amine], the values for the IC50 against PDE1C, against PDE1B and against PDE1A were 48 nM, 1.3 nM and 11 nM, respectively.
Taken in the same sequence, the figures for `CCOc1ncccc1-c1cc(NCc2cccc3nsnc23)c2c(n1)c(C)nn2C(C)C` [Example 2a, N-(2,1,3-benzothiadiazol-4-ylmethyl)-5-(2-ethoxy-3-pyridyl)-1-isopropyl-3-methyl-pyrazolo[4,3-b]pyridin-7-amine] were 140 nM, 3.4 nM and 53 nM.
Consider `COc1nnccc1-c1cc(NCc2cnn(C)c2)c2c(n1)c(C)nn2C(C)C` [Example 2b, 1-isopropyl-5-(3-methoxypyridazin-4-yl)-3-methyl-N-[(1-methylpyrazol-4-yl)methyl]pyrazolo[4,3-b]pyridin-7-amine], for which the IC50 against PDE1C was 49 nM; against PDE1B, 8.1 nM; against PDE1A it was 45 nM.
For `CCOc1ncccc1-c1cc(NCc2cccn3cnnc23)c2c(n1)c(C)nn2C(C)C` [Example 3a, 5-(2-ethoxy-3-pyridyl)-1-isopropyl-3-methyl-N-([1,2,4]triazolo[4,3-c]pyridin-8-ylmethyl)pyrazolo[4,3-b]pyridin-7-amine], the IC50 came to 0.32 nM at PDE1B and 4.7 nM against PDE1A.
With `CCOc1nnccc1-c1cc(NCc2cnn(C)c2)c2c(n1)c(C)nn2C(C)C` [Example 3b, 5-(3-ethoxypyridazin-4-yl)-1-isopropyl-3-methyl-N-[(1-methylpyrazol-4-yl)methyl]pyrazolo[4,3-b]pyridin-7-amine], the IC50 on PDE1C is 27 nM; against PDE1B, 1.1 nM; against PDE1A, 6.1 nM.
Taken in the same sequence, the figures for `CCOc1ncccc1-c1cc(NCc2cccn3ccnc23)c2c(n1)c(C)nn2C(C)C` [Example 4a, 5-(2-ethoxy-3-pyridyl)-N-(imidazo[1,2-a]pyridin-8-ylmethyl)-1-isopropyl-3-methyl-pyrazolo[4,3-b]pyridin-7-amine] were 22 nM, 0.48 nM and 6.6 nM.
`CCCOc1nnccc1-c1cc(NCc2cnn(C)c2)c2c(n1)c(C)nn2C(C)C` [Example 4b, 1-isopropyl-3-methyl-N-[(1-methylpyrazol-4-yl)methyl]-5-(3-propoxypyridazin-4-yl)pyrazolo[4,3-b]pyridin-7-amine]: the IC50 worked out at 18 nM on PDE1C, 0.35 nM at PDE1B and 3.2 nM against PDE1A.
With `CCOc1ncccc1-c1cc(NCc2cccn3nccc23)c2c(n1)c(C)nn2C(C)C` [Example 5a, 5-(2-ethoxy-3-pyridyl)-1-isopropyl-3-methyl-N-(pyrazolo[1,5-a]pyridin-4-ylmethyl)pyrazolo[4,3-b]pyridin-7-amine], the IC50 on PDE1C came to 95 nM; against PDE1B, 7.1 nM; at PDE1A, 53 nM.
For `CCOc1ncccc1-c1cc(NCc2cccc3ncnn23)c2c(n1)c(C)nn2C(C)C` [Example 6a, 5-(2-ethoxy-3-pyridyl)-1-isopropyl-3-methyl-N-([1,2,4]triazolo[1,5-a]pyridin-5-ylmethyl)pyrazolo[4,3-b]pyridin-7-amine], the IC50 against PDE1C was found to be 64 nM; at PDE1B, 1.4 nM; against PDE1A it was 18 nM.
Taken in the same sequence, the figures for `CCOc1ncccc1-c1cc(NCc2cccc3nc(C)nn23)c2c(n1)c(C)nn2C(C)C` [Example 7a, 5-(2-ethoxy-3-pyridyl)-1-isopropyl-3-methyl-N-[(2-methyl-[1,2,4]triazolo[1,5-a]pyridin-5-yl)methyl]pyrazolo[4,3-b]pyridin-7-amine] were 35 nM, 0.93 nM and 11 nM.
Take `CCOc1nnccc1-c1cc(NCc2cccnc2OC)c2c(n1)c(C)nn2C(C)C` [Example 7b, 5-(3-ethoxypyridazin-4-yl)-1-isopropyl-N-[(2-methoxy-3-pyridyl)methyl]-3-methyl-pyrazolo[4,3-b]pyridin-7-amine]: the figures for the IC50 against PDE1B and against PDE1A were 1.7 nM and 11 nM, respectively.
As to `CCOc1ncccc1-c1cc(NCc2cccn3cncc23)c2c(n1)c(C)nn2C(C)C` [Example 8a, 5-(2-ethoxy-3-pyridyl)-N-(imidazo[1,5-a]pyridin-8-ylmethyl)-1-isopropyl-3-methyl-pyrazolo[4,3-b]pyridin-7-amine], the figures for the IC50 against PDE1C, against PDE1B and against PDE1A were 9.1 nM, 0.18 nM and 3.2 nM, respectively.
`CCOc1nnccc1-c1cc(NCc2nnc(C)o2)c2c(n1)c(C)nn2C(C)C` [Example 8b, 5-(3-ethoxypyridazin-4-yl)-1-isopropyl-3-methyl-N-[(5-methyl-1,3,4-oxadiazol-2-yl)methyl]pyrazolo[4,3-b]pyridin-7-amine]: the IC50 against PDE1C is 320 nM; against PDE1B, 14 nM; at PDE1A, 97 nM.
As for `CCOc1ncccc1-c1cc(NCc2cccc3ncoc23)c2c(n1)c(C)nn2C(C)C` [Example 9a, N-(1,3-benzoxazol-7-ylmethyl)-5-(2-ethoxy-3-pyridyl)-1-isopropyl-3-methyl-pyrazolo[4,3-b]pyridin-7-amine], the values for the IC50 on PDE1C, against PDE1B and against PDE1A were 82 nM, 5.3 nM and 45 nM, respectively.
As to `CCOc1nnccc1-c1cc(NCc2ccn(C)n2)c2c(n1)c(C)nn2C(C)C` [Example 9b, 5-(3-ethoxypyridazin-4-yl)-1-isopropyl-3-methyl-N-[(1-methylpyrazol-3-yl)methyl]pyrazolo[4,3-b]pyridin-7-amine], the results for the IC50 against PDE1C, against PDE1B and at PDE1A were 22 nM, 0.6 nM and 5.2 nM, respectively.
In the same order, the values of `CCOc1nnccc1-c1cc(NCc2ncc(F)cn2)c2c(n1)c(C)nn2C(C)C` [Example 10b, 5-(3-ethoxypyridazin-4-yl)-N-[(5-fluoropyrimidin-2-yl)methyl]-1-isopropyl-3-methyl-pyrazolo[4,3-b]pyridin-7-amine] are 67 nM, 2.4 nM and 21 nM.
`CCOc1nnccc1-c1cc(NCc2cccc3oc(C)nc23)c2c(n1)c(C)nn2C(C)C` [Example 14a, 5-(3-ethoxypyridazin-4-yl)-1-isopropyl-3-methyl-N-[(2-methyl-1,3-benzoxazol-4-yl)methyl]pyrazolo[4,3-b]pyridin-7-amine]: the results for the IC50 at PDE1B and against PDE1A were 0.21 nM and 9.3 nM, respectively.
Regarding `CCOc1nnccc1-c1cc(NCc2ccccn2)c2c(n1)c(C)nn2C(C)C` [Example 14b, 5-(3-ethoxypyridazin-4-yl)-1-isopropyl-3-methyl-N-(2-pyridylmethyl)pyrazolo[4,3-b]pyridin-7-amine], the values for the IC50 at PDE1C and on PDE1B were 53 nM and 1.1 nM, respectively.
With `CCOc1nnccc1-c1cc(NCc2cc(C)[nH]n2)c2c(n1)c(C)nn2C(C)C` [Example 22b, 5-(3-ethoxypyridazin-4-yl)-1-isopropyl-3-methyl-N-[(5-methyl-1H-pyrazol-3-yl)methyl]pyrazolo[4,3-b]pyridin-7-amine], the figures for the IC50 on PDE1C and against PDE1B were 15 nM and 0.4 nM, respectively.
As for `CCOc1nnccc1-c1cc(NCc2cccc(OC)n2)c2c(n1)c(C)nn2C(C)C` [Example 24b, 5-(3-ethoxypyridazin-4-yl)-1-isopropyl-N-[(6-methoxy-2-pyridyl)methyl]-3-methyl-pyrazolo[4,3-b]pyridin-7-amine], the IC50 turned out to be 71 nM on PDE1C and 1.4 nM at PDE1B.
As to `CCOc1nnccc1-c1cc(NCc2cccc(F)n2)c2c(n1)c(C)nn2C(C)C` [Example 26b, 5-(3-ethoxypyridazin-4-yl)-N-[(6-fluoro-2-pyridyl)methyl]-1-isopropyl-3-methyl-pyrazolo[4,3-b]pyridin-7-amine], the results for the IC50 on PDE1C and against PDE1A were 44 nM and 6.5 nM, respectively.
For `CCOc1cnccc1-c1cc(NCc2cnn(C)c2)c2c(n1)c(C)nn2C(C)C` [Example 28b, 5-(3-ethoxy-4-pyridyl)-1-isopropyl-3-methyl-N-[(1-methylpyrazol-4-yl)methyl]pyrazolo[4,3-b]pyridin-7-amine], the IC50 at PDE1C was found to be 33 nM; at PDE1B, 2.1 nM.
Consider `Cc1nc2c(-c3cc(NCc4cnn(C)c4)c4c(n3)c(C)nn4C(C)C)cccc2o1` [Example 35b, 1-isopropyl-3-methyl-5-(2-methyl-1,3-benzoxazol-4-yl)-N-[(1-methylpyrazol-4-yl)methyl]pyrazolo[4,3-b]pyridin-7-amine], for which the IC50 against PDE1C was 43 nM; against PDE1A it was 39 nM.
